Test results from the NIST ThermoML archive (doi:10.1016/j.jct.2016.06.016).
Numbers after ± are expanded uncertainties.

Assay: xn = mol fraction of the nth substance listed
Conditions: 100 kPa, Liquid; for viscosity: Concentric cylinders viscometry; for mass density: Vibrating tube method

## CCOC(=O)CCC(=O)OCC [diethyl butanedioate] + CCCCCCO
288.15 K, x1 = 0.0999
  viscosity: 4.539 ± 0.043 mPa·s
  mass density: 849.53 ± 0.83 kg/m3
288.15 K, x1 = 0.2
  viscosity: 3.729 ± 0.035 mPa·s
  mass density: 875.7 ± 0.83 kg/m3
288.15 K, x1 = 0.3001
  viscosity: 3.285 ± 0.031 mPa·s
  mass density: 900.45 ± 0.83 kg/m3
288.15 K, x1 = 0.4
  viscosity: 3.019 ± 0.029 mPa·s
  mass density: 923.97 ± 0.83 kg/m3
288.15 K, x1 = 0.4999
  viscosity: 2.869 ± 0.027 mPa·s
  mass density: 946.39 ± 0.83 kg/m3
288.15 K, x1 = 0.6
  viscosity: 2.789 ± 0.027 mPa·s
  mass density: 967.72 ± 0.83 kg/m3
288.15 K, x1 = 0.7002
  viscosity: 2.788 ± 0.027 mPa·s
  mass density: 988.27 ± 0.83 kg/m3
288.15 K, x1 = 0.7999
  viscosity: 2.856 ± 0.027 mPa·s
  mass density: 1007.86 ± 0.83 kg/m3
288.15 K, x1 = 0.9
  viscosity: 2.954 ± 0.028 mPa·s
  mass density: 1026.75 ± 0.83 kg/m3
288.15 K, x1 = 1
  viscosity: 3.195 ± 0.03 mPa·s
  mass density: 1044.83 ± 0.84 kg/m3
293.15 K, x1 = 0.0999
  viscosity: 3.876 ± 0.036 mPa·s
  mass density: 845.73 ± 0.83 kg/m3
293.15 K, x1 = 0.2
  viscosity: 3.213 ± 0.03 mPa·s
  mass density: 871.67 ± 0.83 kg/m3
293.15 K, x1 = 0.3001
  viscosity: 2.842 ± 0.027 mPa·s
  mass density: 896.23 ± 0.83 kg/m3
293.15 K, x1 = 0.4
  viscosity: 2.62 ± 0.025 mPa·s
  mass density: 919.56 ± 0.83 kg/m3
293.15 K, x1 = 0.4999
  viscosity: 2.495 ± 0.024 mPa·s
  mass density: 941.82 ± 0.83 kg/m3
293.15 K, x1 = 0.6
  viscosity: 2.432 ± 0.023 mPa·s
  mass density: 963 ± 0.83 kg/m3
293.15 K, x1 = 0.7002
  viscosity: 2.435 ± 0.023 mPa·s
  mass density: 983.42 ± 0.83 kg/m3
293.15 K, x1 = 0.7999
  viscosity: 2.495 ± 0.024 mPa·s
  mass density: 1002.88 ± 0.83 kg/m3
293.15 K, x1 = 0.9
  viscosity: 2.61 ± 0.025 mPa·s
  mass density: 1021.66 ± 0.83 kg/m3
293.15 K, x1 = 1
  viscosity: 2.807 ± 0.027 mPa·s
  mass density: 1039.63 ± 0.83 kg/m3
298.15 K, x1 = 0.0999
  viscosity: 3.358 ± 0.032 mPa·s
  mass density: 841.91 ± 0.83 kg/m3
298.15 K, x1 = 0.2
  viscosity: 2.817 ± 0.027 mPa·s
  mass density: 867.63 ± 0.83 kg/m3
298.15 K, x1 = 0.3001
  viscosity: 2.508 ± 0.024 mPa·s
  mass density: 891.99 ± 0.83 kg/m3
298.15 K, x1 = 0.4
  viscosity: 2.327 ± 0.023 mPa·s
  mass density: 915.15 ± 0.83 kg/m3
298.15 K, x1 = 0.4999
  viscosity: 2.231 ± 0.022 mPa·s
  mass density: 937.24 ± 0.83 kg/m3
298.15 K, x1 = 0.6
  viscosity: 2.18 ± 0.021 mPa·s
  mass density: 958.28 ± 0.83 kg/m3
298.15 K, x1 = 0.7002
  viscosity: 2.188 ± 0.021 mPa·s
  mass density: 978.57 ± 0.83 kg/m3
298.15 K, x1 = 0.7999
  viscosity: 2.24 ± 0.022 mPa·s
  mass density: 997.91 ± 0.83 kg/m3
298.15 K, x1 = 0.9
  viscosity: 2.337 ± 0.023 mPa·s
  mass density: 1016.57 ± 0.83 kg/m3
298.15 K, x1 = 1
  viscosity: 2.491 ± 0.024 mPa·s
  mass density: 1034.44 ± 0.83 kg/m3
303.15 K, x1 = 0.0999
  viscosity: 2.932 ± 0.028 mPa·s
  mass density: 838.07 ± 0.83 kg/m3
303.15 K, x1 = 0.2
  viscosity: 2.477 ± 0.024 mPa·s
  mass density: 863.58 ± 0.83 kg/m3
303.15 K, x1 = 0.3001
  viscosity: 2.222 ± 0.022 mPa·s
  mass density: 887.75 ± 0.83 kg/m3
303.15 K, x1 = 0.4
  viscosity: 2.071 ± 0.02 mPa·s
  mass density: 910.73 ± 0.83 kg/m3
303.15 K, x1 = 0.4999
  viscosity: 1.99 ± 0.019 mPa·s
  mass density: 932.67 ± 0.83 kg/m3
303.15 K, x1 = 0.6
  viscosity: 1.952 ± 0.019 mPa·s
  mass density: 953.56 ± 0.83 kg/m3
303.15 K, x1 = 0.7002
  viscosity: 1.962 ± 0.019 mPa·s
  mass density: 973.72 ± 0.83 kg/m3
303.15 K, x1 = 0.7999
  viscosity: 2.01 ± 0.02 mPa·s
  mass density: 992.94 ± 0.83 kg/m3
303.15 K, x1 = 0.9
  viscosity: 2.098 ± 0.02 mPa·s
  mass density: 1011.5 ± 0.83 kg/m3
303.15 K, x1 = 1
  viscosity: 2.229 ± 0.022 mPa·s
  mass density: 1029.25 ± 0.83 kg/m3
308.15 K, x1 = 0.0999
  viscosity: 2.572 ± 0.025 mPa·s
  mass density: 834.22 ± 0.83 kg/m3
308.15 K, x1 = 0.2
  viscosity: 2.193 ± 0.021 mPa·s
  mass density: 859.52 ± 0.83 kg/m3
308.15 K, x1 = 0.3001
  viscosity: 1.98 ± 0.019 mPa·s
  mass density: 883.49 ± 0.83 kg/m3
308.15 K, x1 = 0.4
  viscosity: 1.854 ± 0.018 mPa·s
  mass density: 906.3 ± 0.83 kg/m3
308.15 K, x1 = 0.4999
  viscosity: 1.788 ± 0.018 mPa·s
  mass density: 928.09 ± 0.83 kg/m3
308.15 K, x1 = 0.6
  viscosity: 1.759 ± 0.017 mPa·s
  mass density: 948.84 ± 0.83 kg/m3
308.15 K, x1 = 0.7002
  viscosity: 1.77 ± 0.017 mPa·s
  mass density: 968.87 ± 0.83 kg/m3
308.15 K, x1 = 0.7999
  viscosity: 1.816 ± 0.018 mPa·s
  mass density: 987.97 ± 0.83 kg/m3
308.15 K, x1 = 0.9
  viscosity: 1.893 ± 0.019 mPa·s
  mass density: 1006.42 ± 0.83 kg/m3
308.15 K, x1 = 1
  viscosity: 2.008 ± 0.02 mPa·s
  mass density: 1024.08 ± 0.83 kg/m3
313.15 K, x1 = 0.0999
  viscosity: 2.276 ± 0.022 mPa·s
  mass density: 830.34 ± 0.83 kg/m3
313.15 K, x1 = 0.2
  viscosity: 1.961 ± 0.019 mPa·s
  mass density: 855.43 ± 0.83 kg/m3
313.15 K, x1 = 0.3001
  viscosity: 1.783 ± 0.018 mPa·s
  mass density: 879.22 ± 0.83 kg/m3
313.15 K, x1 = 0.4
  viscosity: 1.679 ± 0.017 mPa·s
  mass density: 901.87 ± 0.83 kg/m3
313.15 K, x1 = 0.4999
  viscosity: 1.626 ± 0.016 mPa·s
  mass density: 923.5 ± 0.83 kg/m3
313.15 K, x1 = 0.6
  viscosity: 1.604 ± 0.016 mPa·s
  mass density: 944.11 ± 0.83 kg/m3
313.15 K, x1 = 0.7002
  viscosity: 1.617 ± 0.016 mPa·s
  mass density: 964.01 ± 0.83 kg/m3
313.15 K, x1 = 0.7999
  viscosity: 1.659 ± 0.017 mPa·s
  mass density: 983 ± 0.83 kg/m3
313.15 K, x1 = 0.9
  viscosity: 1.729 ± 0.017 mPa·s
  mass density: 1001.34 ± 0.83 kg/m3
313.15 K, x1 = 1
  viscosity: 1.821 ± 0.018 mPa·s
  mass density: 1018.9 ± 0.83 kg/m3
318.15 K, x1 = 0.0999
  viscosity: 2.013 ± 0.02 mPa·s
  mass density: 826.44 ± 0.83 kg/m3
318.15 K, x1 = 0.2
  viscosity: 1.748 ± 0.017 mPa·s
  mass density: 851.33 ± 0.83 kg/m3
318.15 K, x1 = 0.3001
  viscosity: 1.598 ± 0.016 mPa·s
  mass density: 874.93 ± 0.83 kg/m3
318.15 K, x1 = 0.4
  viscosity: 1.511 ± 0.015 mPa·s
  mass density: 897.41 ± 0.83 kg/m3
318.15 K, x1 = 0.4999
  viscosity: 1.468 ± 0.015 mPa·s
  mass density: 918.89 ± 0.83 kg/m3
318.15 K, x1 = 0.6
  viscosity: 1.452 ± 0.015 mPa·s
  mass density: 939.37 ± 0.83 kg/m3
318.15 K, x1 = 0.7002
  viscosity: 1.467 ± 0.015 mPa·s
  mass density: 959.15 ± 0.83 kg/m3
318.15 K, x1 = 0.7999
  viscosity: 1.506 ± 0.015 mPa·s
  mass density: 978.02 ± 0.83 kg/m3
318.15 K, x1 = 0.9
  viscosity: 1.57 ± 0.016 mPa·s
  mass density: 996.26 ± 0.83 kg/m3
318.15 K, x1 = 1
  viscosity: 1.66 ± 0.017 mPa·s
  mass density: 1013.72 ± 0.83 kg/m3
323.15 K, x1 = 0.0999
  viscosity: 1.817 ± 0.018 mPa·s
  mass density: 822.52 ± 0.83 kg/m3
323.15 K, x1 = 0.2
  viscosity: 1.584 ± 0.016 mPa·s
  mass density: 847.2 ± 0.83 kg/m3
323.15 K, x1 = 0.3001
  viscosity: 1.458 ± 0.015 mPa·s
  mass density: 870.62 ± 0.83 kg/m3
323.15 K, x1 = 0.4
  viscosity: 1.386 ± 0.014 mPa·s
  mass density: 892.94 ± 0.83 kg/m3
323.15 K, x1 = 0.4999
  viscosity: 1.344 ± 0.014 mPa·s
  mass density: 914.27 ± 0.83 kg/m3
323.15 K, x1 = 0.6
  viscosity: 1.337 ± 0.014 mPa·s
  mass density: 934.62 ± 0.83 kg/m3
323.15 K, x1 = 0.7002
  viscosity: 1.353 ± 0.014 mPa·s
  mass density: 954.28 ± 0.83 kg/m3
323.15 K, x1 = 0.7999
  viscosity: 1.391 ± 0.014 mPa·s
  mass density: 973.05 ± 0.83 kg/m3
323.15 K, x1 = 0.9
  viscosity: 1.448 ± 0.015 mPa·s
  mass density: 991.18 ± 0.83 kg/m3
323.15 K, x1 = 1
  viscosity: 1.523 ± 0.015 mPa·s
  mass density: 1008.55 ± 0.83 kg/m3
